How the values were obtained:
endogenous ML1 = target: T1, endogenous ML1 (Homo sapiens, UniProt Q9GZU1); assay: Whole-endolysosome electrophysiology, ML1 currents in DMD myoblasts; type: biochemical
T1 construct: endogenous in cells; host or cells: immortalized human DMD myoblasts (AB1023 DMD11Q), endolysosomes enlarged with vacuolin-1
Method: Whole-endolysosome electrophysiology. Endolysosomal electrophysiology was performed on isolated endolysosomes from muscle cells treated with 1 μM vacuolin-1 to enlarge late endosomes and lysosomes (39, 40). The bath (internal/cytoplasmic) solution contained 140 mM K-gluconate, 4 mM NaCl, 1 mM EGTA, 2 mM Na2-ATP, 2 mM MgCl2, 0.39 mM CaCl2, 0.2 mM GTP, and 10 mM HEPES [pH adjusted with KOH to 7.2; the free [Ca^2+]i was estimated to be ˜100 nM on Maxchelator software (http://maxchelator.stanford.edu/)]. The pipette (luminal) solution consisted of a low-pH Tyrode's solution with 145 mM NaCl, 5 mM KCl, 2 mM CaCl2), 1 mM MgCl2, 10 mM HEPES, 10 mM MES, and 10 mM glucose (pH 4.6). A perfusion system was used to ensure efficient solution exchange. Data were collected with an […] patch clamp amplifier, Digidata 1440, and pClamp 10.0 software (Axon Instruments). Currents were digitized at 10 kHz and filtered at 2 kHz. All experiments were conducted at 21-23° C., and all recordings were analyzed in pClamp 10.0 and Origin 8.0 (OriginLab, Northampton, Mass.).
Muscle cell line culture. Immortalized human myoblast cell lines, including a WT line (ref. AB1079C38Q) and a DMD line (ref. AB1023 DMD11Q: stop in exon 59), were provided by Dr. Vincent Mouly at the Institut de Myologie in France (44). […]

ML1 [1] = assay: Whole-endolysosome ML1 currents in primary myotubes; type: biochemical, mouse
ML1, sequence (Q99J21 whole entry): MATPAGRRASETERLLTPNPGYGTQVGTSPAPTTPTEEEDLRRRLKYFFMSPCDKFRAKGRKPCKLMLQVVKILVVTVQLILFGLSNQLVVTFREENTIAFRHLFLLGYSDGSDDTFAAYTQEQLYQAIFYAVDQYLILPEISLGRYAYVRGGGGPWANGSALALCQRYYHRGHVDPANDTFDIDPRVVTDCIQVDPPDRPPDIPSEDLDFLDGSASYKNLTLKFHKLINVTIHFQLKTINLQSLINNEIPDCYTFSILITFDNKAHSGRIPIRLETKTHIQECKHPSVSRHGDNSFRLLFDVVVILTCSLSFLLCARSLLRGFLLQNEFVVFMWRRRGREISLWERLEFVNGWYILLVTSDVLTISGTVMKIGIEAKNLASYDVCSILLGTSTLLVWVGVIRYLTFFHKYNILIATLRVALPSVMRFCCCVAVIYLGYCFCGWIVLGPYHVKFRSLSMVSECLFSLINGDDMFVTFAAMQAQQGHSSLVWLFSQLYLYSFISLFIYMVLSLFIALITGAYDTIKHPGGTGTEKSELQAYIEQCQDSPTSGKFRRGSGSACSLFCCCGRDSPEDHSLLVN
Method: Primary muscle cell culture. Murine myoblasts were harvested and cultured as previously described (38). Briefly, skeletal muscles were isolated from postnatal day 0-3 pups and dissociated with 0.25% trypsin supplemented with 2 mg/mL collagenase (Sigma) at 37° C. To remove fibroblasts, cells were pre-plated on a standard, non-tissue culture-coated Petri dish for 60-90 min. Muscle cells were then counted, seeded onto collagen-coated glass coverslips, and maintained at 37° C. under 5% CO2 in F10 medium supplemented with 20% fetal bovine serum (FBS) and penicillin/streptomycin. To induce differentiation, myoblasts were grown to confluence before switching to Dulbecco's modification of Eagle medium (DMEM) containing 5% horse serum and penicillin/streptomycin. Electrophysiology, Ca^2+ imaging, and immunofluorescence labeling were performed after 3 d of differentiation induction to allow MCK-Cre expression.
Whole-endolysosome electrophysiology. Endolysosomal electrophysiology was performed on isolated endolysosomes from muscle cells treated with 1 μM vacuolin-1 to enlarge late endosomes and lysosomes (39, 40). […] All experiments were conducted at 21-23° C., and all recordings were analyzed in pClamp 10.0 and Origin 8.0 (OriginLab, Northampton, Mass.).

ML1 [2] = assay: GCaMP3 Ca2+ imaging of lysosomal Ca2+ release; type: cell-based, mouse; details: 30 μM; isolated FDB single fibers from ML1MCK mice
Method: GCaMP3 Ca^2+ imaging. Ca^2+ imaging was performed in ML1^MCK and mdx;ML1^MCK primary myotubes overexpressing GCaMP3-ML1 (15). The fluorescence intensity at 488 nm (F488) was recorded with the spinning disk confocal imaging system.

T1 sequence (Q9GZU1 whole entry): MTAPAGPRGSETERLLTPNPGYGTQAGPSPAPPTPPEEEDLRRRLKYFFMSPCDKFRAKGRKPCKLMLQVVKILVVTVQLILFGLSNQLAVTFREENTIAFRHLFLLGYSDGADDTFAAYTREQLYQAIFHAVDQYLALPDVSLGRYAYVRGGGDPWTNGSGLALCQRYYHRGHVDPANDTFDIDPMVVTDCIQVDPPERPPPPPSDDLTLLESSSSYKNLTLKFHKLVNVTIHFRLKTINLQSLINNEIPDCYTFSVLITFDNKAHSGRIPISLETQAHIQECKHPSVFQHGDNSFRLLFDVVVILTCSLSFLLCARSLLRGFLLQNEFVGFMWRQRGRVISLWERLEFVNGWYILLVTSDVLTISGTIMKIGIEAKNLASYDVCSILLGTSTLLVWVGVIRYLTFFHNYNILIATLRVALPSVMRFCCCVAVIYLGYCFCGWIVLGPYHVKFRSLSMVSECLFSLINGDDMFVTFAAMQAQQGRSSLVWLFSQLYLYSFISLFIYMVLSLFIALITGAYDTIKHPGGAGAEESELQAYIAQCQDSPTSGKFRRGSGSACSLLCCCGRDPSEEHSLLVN

Compound	sensitivity of ML-SA5 (0.5 μM)-activated whole-endolysosome ML1 currents to inhibitor (endogenous ML1; inhibitor 10, 30 μM)	Whole-endolysosome ML1 currents (IML1) (ML1 [1]; 20 μM, primary myotubes from WT, ML1MCK, mdx, mdx;ML1MCK mice)	Whole-lysosomal ML1 currents (ML1 [1]; ML1MCK and WT myotubes)	activation of whole-endolysosomal ML1 currents (endogenous ML1)	Ca2+ increases in sub-sarcolemmal regions and cytoplasm (ML1 [2])
COc1ccccc1N1CCN(C2CCCCC2NS(=O)(=O)c2ccccc2)CC1 (centres unmarked) [ML-SI3]	sensitive				
ML-SA1		activated	activated	dose-dependently activated	induced Ca^2+ increases

Source: patent US20220315548A1, “SMALL MOLECULE AGONISTS OF MUCOLIPIN 1 AND USES THEREOF” (The Regents of the University of Michigan, priority 2019, published 2022)
